Data reported in PubChem BioAssay AID2060891 (Molecular Pharmacology Branch, DTP, NCI, 2025).

Test system: K98450-129-R-PDC complex spheroid growth, percent test/control
Assay: Anticancer human tumor K98450-129-R-PDC patient-derived colon adenocarcinoma cell line growth inhibition [RAS]
Conditions: for IC50: curve of first compound; for viability, T/C: stronger effect = lower value
Procedure, shortened: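 Agents were tested in combination matrices in half-log decrements from a top concentration at or near clinical Cmax (10 microM if undetermined). Targets were multi-cell spheroids of tumour lines plus HUVEC and MSC stromal cells.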

[1] = second compound 0.000949 µM, first compound 0.000949 µM
[2] = second compound 0.000949 µM, first compound 0.003 µM
[3] = second compound 0.000949 µM, first compound 0.00949 µM
[4] = second compound 0.000949 µM, first compound 0.03 µM
[5] = second compound 0.000949 µM, first compound 0.0949 µM
[6] = second compound 0.000949 µM, first compound 0.3 µM
[7] = second compound 0.003 µM, first compound 0.000949 µM
[8] = second compound 0.003 µM, first compound 0.003 µM
[9] = second compound 0.003 µM, first compound 0.00949 µM
[10] = second compound 0.003 µM, first compound 0.03 µM
[11] = second compound 0.003 µM, first compound 0.0949 µM
[12] = second compound 0.003 µM, first compound 0.3 µM
[13] = second compound 0.00949 µM, first compound 0.000949 µM
[14] = second compound 0.00949 µM, first compound 0.003 µM
[15] = second compound 0.00949 µM, first compound 0.00949 µM
[16] = second compound 0.00949 µM, first compound 0.03 µM
[17] = second compound 0.00949 µM, first compound 0.0949 µM
[18] = second compound 0.00949 µM, first compound 0.3 µM
[19] = second compound 0.03 µM, first compound 0.000949 µM
[20] = second compound 0.03 µM, first compound 0.003 µM
[21] = second compound 0.03 µM, first compound 0.00949 µM
[22] = second compound 0.03 µM, first compound 0.03 µM
[23] = second compound 0.03 µM, first compound 0.0949 µM
[24] = second compound 0.03 µM, first compound 0.3 µM
[25] = second compound 0.0949 µM, first compound 0.000949 µM
[26] = second compound 0.0949 µM, first compound 0.003 µM
[27] = second compound 0.0949 µM, first compound 0.00949 µM
[28] = second compound 0.0949 µM, first compound 0.03 µM
[29] = second compound 0.0949 µM, first compound 0.0949 µM
[30] = second compound 0.0949 µM, first compound 0.3 µM
[31] = second compound 0.3 µM, first compound 0.000949 µM
[32] = second compound 0.3 µM, first compound 0.003 µM
[33] = second compound 0.3 µM, first compound 0.00949 µM
[34] = second compound 0.3 µM, first compound 0.03 µM
[35] = second compound 0.3 µM, first compound 0.0949 µM
[36] = second compound 0.3 µM, first compound 0.3 µM
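Also: spheroids exposed to agents for seven days before the viability readout.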
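For viability, T/C in this document: luminescence used as a proxy for viable cell amount.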

C=CC(=O)N1CCN(c2nc(OCC3CCCN3C)nc3c(F)c(-c4nc(N)cc(C)c4C(F)(F)F)c(Cl)cc23)C(C)C1 (stereo unspecified) + CCn1c(-c2cccnc2C(C)OC)c2c3cc(ccc31)N1CCOC(CC(NC(=O)C(C(C)C)N(C)C(=O)C3(F)CCN(C(=O)C#CC(C)(C)N(C)C)CC3)C(=O)N3CCCC(N3)C(=O)OCC(C)(C)C2)C1
IC50 (second compound 0.000949 µM): 179 nM | IC50 (second compound 0.003 µM): 112 nM | IC50 (second compound 0.00949 µM): 3.58 nM | IC50 (second compound 0.03 µM): < 3.16 nM | IC50 (second compound 0.0949 µM): < 3.16 nM | IC50 (second compound 0.3 µM): < 3.16 nM | viability, T/C (second compound 0.000949 µM, first compound 0.00316 µM): 81.6% | viability, T/C (second compound 0.000949 µM, first compound 0.01 µM): 69.9% | viability, T/C (second compound 0.000949 µM, first compound 0.0316 µM): 63.1% | viability, T/C (second compound 0.000949 µM, first compound 0.1 µM): 55.4% | viability, T/C (second compound 0.000949 µM, first compound 0.316 µM): 46.6% | viability, T/C (second compound 0.000949 µM, first compound 1 µM): 36% | viability, T/C (second compound 0.003 µM, first compound 0.00316 µM): 69.4% | viability, T/C (second compound 0.003 µM, first compound 0.01 µM): 54% | viability, T/C (second compound 0.003 µM, first compound 0.0316 µM): 52.8% | viability, T/C (second compound 0.003 µM, first compound 0.1 µM): 56.2% | viability, T/C (second compound 0.003 µM, first compound 0.316 µM): 45.9% | viability, T/C (second compound 0.003 µM, first compound 1 µM): 35.2% | viability, T/C (second compound 0.00949 µM, first compound 0.00316 µM): 52.8% | viability, T/C (second compound 0.00949 µM, first compound 0.01 µM): 46.8% | viability, T/C (second compound 0.00949 µM, first compound 0.0316 µM): 43.8% | viability, T/C (second compound 0.00949 µM, first compound 0.1 µM): 44.9% | viability, T/C (second compound 0.00949 µM, first compound 0.316 µM): 39.9% | viability, T/C (second compound 0.00949 µM, first compound 1 µM): 41.9% | viability, T/C (second compound 0.03 µM, first compound 0.00316 µM): 39.4% | viability, T/C (second compound 0.03 µM, first compound 0.01 µM): 37.1% | viability, T/C (second compound 0.03 µM, first compound 0.0316 µM): 40.4% | viability, T/C (second compound 0.03 µM, first compound 0.1 µM): 40.7% | viability, T/C (second compound 0.03 µM, first compound 0.316 µM): 43.2% | viability, T/C (second compound 0.03 µM, first compound 1 µM): 39.9% | viability, T/C (second compound 0.0949 µM, first compound 0.00316 µM): 36.6% | viability, T/C (second compound 0.0949 µM, first compound 0.01 µM): 34.3% | viability, T/C (second compound 0.0949 µM, first compound 0.0316 µM): 42.1% | viability, T/C (second compound 0.0949 µM, first compound 0.1 µM): 37.2% | viability, T/C (second compound 0.0949 µM, first compound 0.316 µM): 43.5% | viability, T/C (second compound 0.0949 µM, first compound 1 µM): 33.7% | viability, T/C (second compound 0.3 µM, first compound 0.00316 µM): 29.8% | viability, T/C (second compound 0.3 µM, first compound 0.01 µM): 35.3% | viability, T/C (second compound 0.3 µM, first compound 0.0316 µM): 42.9% | viability, T/C (second compound 0.3 µM, first compound 0.1 µM): 29% | viability, T/C (second compound 0.3 µM, first compound 0.316 µM): 36.1% | viability, T/C (second compound 0.3 µM, first compound 1 µM): 38%

CC1(C)CCC(Nc2ncc(C(F)(F)F)c(-c3c[nH]c4c(P(C)(C)=O)c(C#N)ccc34)n2)CN1 (stereo unspecified) + CCn1c(-c2cccnc2C(C)OC)c2c3cc(ccc31)N1CCOC(CC(NC(=O)C(C(C)C)N(C)C(=O)C3(F)CCN(C(=O)C#CC(C)(C)N(C)C)CC3)C(=O)N3CCCC(N3)C(=O)OCC(C)(C)C2)C1
IC50 (second compound 0.000949 µM): > 300 nM | IC50 (second compound 0.003 µM): > 300 nM | IC50 (second compound 0.00949 µM): > 300 nM | IC50 (second compound 0.03 µM): < 0.949 nM | IC50 (second compound 0.0949 µM): < 0.949 nM | IC50 (second compound 0.3 µM): < 0.949 nM | viability, T/C [1]: 88.2% | viability, T/C [2]: 72.2% | viability, T/C [3]: 83.1% | viability, T/C [4]: 79.9% | viability, T/C [5]: 80.8% | viability, T/C [6]: 53.8% | viability, T/C [7]: 72.4% | viability, T/C [8]: 52.9% | viability, T/C [9]: 64.5% | viability, T/C [10]: 67.7% | viability, T/C [11]: 61.1% | viability, T/C [12]: 50.4% | viability, T/C [13]: 52.5% | viability, T/C [14]: 45.5% | viability, T/C [15]: 52.7% | viability, T/C [16]: 53.4% | viability, T/C [17]: 51.8% | viability, T/C [18]: 49.6% | viability, T/C [19]: 45% | viability, T/C [20]: 42.9% | viability, T/C [21]: 43.2% | viability, T/C [22]: 45.1% | viability, T/C [23]: 48.2% | viability, T/C [24]: 43.5% | viability, T/C [25]: 39.2% | viability, T/C [26]: 41.1% | viability, T/C [27]: 44.7% | viability, T/C [28]: 41.8% | viability, T/C [29]: 50.3% | viability, T/C [30]: 43.1% | viability, T/C [31]: 34.3% | viability, T/C [32]: 40.7% | viability, T/C [33]: 43.1% | viability, T/C [34]: 36.2% | viability, T/C [35]: 46.9% | viability, T/C [36]: 42%

CCc1c2c(nc3ccc(O)cc13)-c1cc3c(c(=O)n1C2)COC(=O)[C@]3(O)CC + CCn1c(-c2cccnc2C(C)OC)c2c3cc(ccc31)N1CCOC(CC(NC(=O)C(C(C)C)N(C)C(=O)C3(F)CCN(C(=O)C#CC(C)(C)N(C)C)CC3)C(=O)N3CCCC(N3)C(=O)OCC(C)(C)C2)C1
IC50 (second compound 0.000949 µM): 16.9 nM | IC50 (second compound 0.003 µM): 2.54 nM | IC50 (second compound 0.00949 µM): < 0.949 nM | IC50 (second compound 0.03 µM): < 0.949 nM | IC50 (second compound 0.0949 µM): < 0.949 nM | IC50 (second compound 0.3 µM): < 0.949 nM | viability, T/C [1]: 71.1% | viability, T/C [2]: 64.6% | viability, T/C [3]: 60.9% | viability, T/C [4]: 39.8% | viability, T/C [5]: 30.2% | viability, T/C [6]: 25.4% | viability, T/C [7]: 58.1% | viability, T/C [8]: 48.9% | viability, T/C [9]: 38.9% | viability, T/C [10]: 30.9% | viability, T/C [11]: 24.3% | viability, T/C [12]: 15.8% | viability, T/C [13]: 44.3% | viability, T/C [14]: 36.2% | viability, T/C [15]: 32.8% | viability, T/C [16]: 22.7% | viability, T/C [17]: 16.9% | viability, T/C [18]: 14% | viability, T/C [19]: 32.8% | viability, T/C [20]: 40.1% | viability, T/C [21]: 25.6% | viability, T/C [22]: 24.7% | viability, T/C [23]: 19.5% | viability, T/C [24]: 11.6% | viability, T/C [25]: 35.1% | viability, T/C [26]: 33.8% | viability, T/C [27]: 27.9% | viability, T/C [28]: 22.3% | viability, T/C [29]: 20% | viability, T/C [30]: 11.5% | viability, T/C [31]: 36% | viability, T/C [32]: 32.7% | viability, T/C [33]: 28.5% | viability, T/C [34]: 18.3% | viability, T/C [35]: 15.4% | viability, T/C [36]: 10.7%
